Laboratory results: patent US20220168384A1, “Anti-Bacterial Combination Therapy” (McMaster University, priority 2019, published 2022)
Where two headings read alike, the source gives them in different places.

Tests used:
P. aeruginosa PA14 [1] = assay: Thiopeptide + DSX checkerboard and dose-response assays; format: cell-based, Pseudomonas aeruginosa; conditions: thiopeptide + DSX checkerboard, 10:90
Description: (§1) Culture conditions, checkerboard assays using P. aeruginosa PA14 and dose-response assays were performed as described in Example 1. In addition to TS, other thiopeptides tested were siomycin A (SM), thiocillin I (TC), micrococcin P1 (MC), nosiheptide (NH), berninamycin A (BER), and geninthiocin A (GEN). For dose response assays of the combinations conducted in 10:90, DSX concentration was constant at 64 μg/mL.

P. aeruginosa PA14 [2] = assay: Dose response and checkerboard assays against PA14; format: cell-based, Pseudomonas aeruginosa; conditions: for synergy with DSX: checkerboard of DSX with antibiotic
Description: Checkerboard assays were set-up using Nunc 96-well plates in an 8-well by 8-well format. Two columns were allocated for vehicle controls and two columns for sterility controls. Vehicle controls contained 2 μL DMSO plus 2 μL DFP solvent for checkerboards with TS and DFP or 4 μL DMSO for TS and DSX, in 146 μL of 10:90 medium or 10% serum inoculated with PA14 or PAO1-KP as described in Growth Curves. Sterile controls contained the same components in 10:90 medium or 10% serum, without cells. Serial dilutions of TS—with 17 μg/mL being the highest final concentration—were added along the y axis of the checkerboard (increasing concentration from bottom to top) whereas serial dilutions of DFP or DSX—with 512 μg/mL being the highest final concentration—were added along the x axis (increasing concentration from left to right). The final volume of each well was 150 μL and each checkerboard was repeated at least three times. Plates were incubated and the final OD600 determined as detailed above.
Culture conditions, growth assays, dose response and checkerboard assays using P. aeruginosa PA14 were performed as described in Example 1. Briefly, overnight cultures were grown in LB for 16 h, 37° C., 200 rpm then subcultured (1:500 dilution) into 10:90 for 6 h. Subcultures were standardized to OD600 of 0.10 and diluted 1:500 in fresh 10:90 before use. For the dose response assay, serial dilutions of compounds were added at 75 times the final concentration and diluted with 10:90 with cells to reach the desired final concentration. This was done in triplicate for technical replicates. Vehicle and sterile controls were included. The checkerboard assay was done similarly to the dose response assay but in an 8×8 format in a 96-well Nunc plate, with concentration of one drug increasing along the y-axis and the other along the x-axis. Sterility and vehicle controls were included with two columns allocated for each control. At least three biological replicates were repeated for the dose response and checkerboard assays.

[3] = Qualitative assay for antibiotic-Fe3+ coloured complexes; format: physicochemical; conditions: stock antibiotic + FeCl3 final 10 μM; room temperature 1 h
Description: […]. Binding of iron by a compound causes spectral shifts that can detected visually. Five μL of stock concentration antibiotic was added to 5 μL of FeCl3 to a final FeCl3 concentration of 10 μM and incubated at room temperature for one hour. Negative controls without iron are indicated by a negative sign and droplets with FeCl3 are indicated with a positive sign; vehicle controls with Milli-Q H2O and DMSO were included.
Compounds were arrayed in Nunc 96 microwell plates. Vehicle controls contained Milli-Q H2O with 1:75 dilution of each compound at a final concentration of […]. The experimental set-up contained the same components as the vehicle control, with the addition of […] FeCl3. The final volume in each well was 150 μL. The plate was incubated at room temperature for one hour and absorption spectra from 300 nm to 700 nm was read in 2 nm increments (Multiskan Go—Thermo Fisher Scientific). […]

[4] = test system: P. aeruginosa clinical isolates; assay: Clinical isolates testing, P. aeruginosa; format: cell-based, Pseudomonas aeruginosa
Description: Clinical isolates of P. aeruginosa and A. baumannii were inoculated from −80° C. stocks into 200 μL LB broth and grown with shaking at 200 rpm, 16 h, 37° C. in Nunc 96-well plates. The overnight cultures were subcultured (1:25 dilution) into 10:90 and grown with shaking at 200 rpm, 2 h, 37° C. Vehicle controls consisted of 4 μL of DMSO, 144 μL 10:90 and 2 μL of subculture. Sterile controls consisted of 4 μL of DMSO and 146 μL 10:90. […]. The final volume of each well was 150 μL and each checkerboard was repeated at least three times. Plates were incubated with shaking at 200 rpm, 16 h, 37° C. and OD600 was measured (Multiskan Go—Thermo Fisher Scientific). The results were plotted as percent of control (wells containing only DMSO) using Prism (GraphPad).
Clinical isolates were grown and tested as described in Example 1. Briefly, clinical isolates were inoculated from glycerol stocks stored at −80° C. into Nunc 96-well plates and grown overnight at 37° C., for 16 h with shaking in LB (200 rpm). Overnights were subcultured (1:25) into fresh 10:90 medium and grown for 2 h under the same growth conditions. Subcultures were diluted 1:75 in fresh 10:90. Compounds were diluted 1:75 to obtain the final concentration. DOXY and CLI were added at a final concentration of 1 μg/mL, CO was used at 2 μg/mL, TRO was used at 4 μg/mL, TS was used at 8.3 μg/mL, and DSX was used at 32 μg/mL. Vehicle and sterility controls were included. Plates were incubated overnight with the same conditions. The OD600 was read (Multiscan Go—Thermo Fisher Scientific), analyzed using Excel, and the data plotted using Prism (GraphPad).
as §1

[5] = Chrome azurol S (CAS) plate assay; format: physicochemical; conditions: 10 μL of 2 mg/mL; room temperature 1 h
[6] = UV-Vis absorption spectra assay for iron chelation; format: physicochemical; conditions: 300 μM compound and FeCl3; 300-700 nm; 1 h
Description: Equimolar concentrations of compound and FeCl3 were added in deionized H2O to a final concentration of 300 μM and a spectrum of wavelengths from 300 nm to 700 nm read after 1 h incubation at room temperature. The black dashed line is the spectrum of the compound in the absence of iron. The black solid line is the spectrum after the addition of iron. […] Chloramphenicol and ampicillin were used as negative controls. Each assay was performed at least 3 times and averaged values are shown.
Compounds were arrayed in Nunc 96 microwell plates. Vehicle controls contained Milli-Q H2O with 1:75 dilution of each compound at a final concentration of […]. The experimental set-up contained the same components as the vehicle control, with the addition of […] FeCl3. The final volume in each well was 150 μL. The plate was incubated at room temperature for one hour and absorption spectra from 300 nm to 700 nm was read in 2 nm increments (Multiskan Go—Thermo Fisher Scientific).

P. aeruginosa PA14 [7] = assay: Checkerboards pinned to LB agar (bactericidal activity); format: cell-based, Pseudomonas aeruginosa; conditions: overnight 37° C.
Description: Checkerboards were pinned to LB agar plates using a sterile 96 pin tool. Plates were incubated overnight at 37° C. Independent experiments were conducted 3 times and a representative plate is shown.

[8] = checkerboard, IC50 isobolograms, PA14, 10:90
[9] = Pseudomonas aeruginosa, PA14, concentration used in clinical isolate testing, read-out: ⅛^th the MIC of PA14

C=C(NC(=O)c1csc(-c2nc3c(cc2O)-c2nc(cs2)C(=O)NC(C(C)O)C(=O)N/C(=C\C)c2nc(cs2)C(=O)NC2CC(O)C(=O)OCc4cccc5[nH]c(c(C)c45)C(=O)SCC(NC(=O)c4csc2n4)c2nc-3cs2)n1)C(N)=O (stereo not shown) [NH, nosiheptide]
synergy with DSX (P. aeruginosa PA14 [1]): synergize

C/C=C(\NC(=O)c1csc(-c2csc(-c3ccc4c(n3)-c3csc(n3)[C@H]([C@@H](C)O)NC(=O)c3csc(n3)[C@H](C(C)(C)O)NC(=O)c3csc(n3)/C(=C/C)NC(=O)[C@H]([C@@H](C)O)NC(=O)c3csc-4n3)n2)n1)C(=O)NC[C@@H](C)O [TC, thiocillin I]
synergy with DSX (P. aeruginosa PA14 [1]): synergize

C=C(NC(=O)C(=C)NC(=O)c1csc(C2=N[C@@H]3c4csc(n4)[C@H]4NC(=O)c5csc(n5)[C@H]([C@](C)(O)[C@@H](C)O)NC(=O)[C@H]5CSC(=N5)/C(=C/C)NC(=O)[C@H]([C@@H](C)O)NC(=O)c5csc(n5)[C@]3(CC2)NC(=O)[C@H](C)NC(=O)C(=C)NC(=O)C(=C)NC(=O)[C@H](C(C)C)N[C@@H]2C=Cc3c([C@H](C)O)cc(nc3[C@H]2O)C(=O)O[C@@H]4C)n1)C(N)=O [SM, siomycin A]
synergy with DSX (P. aeruginosa PA14 [1]): synergize

Cc1nc(C)c(C)nc1C [2,3,5,6-tetrametylpyrazine, 2,3,5,6-Tetramethylpyrazine]
synergy with TS (P. aeruginosa PA14 [2]; [8]): None

O=C(O)c1cn(C2CC2)c2cc(N3CCNCC3)c(F)cc2c1=O [CIP, ciprofloxacin]
synergy with DSX (P. aeruginosa PA14 [2]; PA14): No synergy
colour change upon addition of FeCl3 [3]: formed orange complexes

O=c1cccccc1O [TRO, Tropolone]
interaction with DSX (P. aeruginosa PA14 [2]; 2D checkerboard, PA14): indifferent
MIC (P. aeruginosa PA14 [2]; [9]): 4 µg/mL
effect of 100 μM Fe^3+ on inhibitory activity (P. aeruginosa PA14 [2]; VAN + compound checkerboards, PA14): abrogated
synergy with TS (P. aeruginosa PA14 [2]; [8]): synergized
relative potency of synergy with TS (P. aeruginosa PA14 [2]; checkerboards, isobolograms and CI values, PA14): greater synergy
susceptibility of C0379 compared to PA14 [4]: less susceptible
decolourization of CAS agar (relative affinity for iron) [5]: greatest decolourization
absorption spectrum after addition of FeCl3 [6]: showed shifts in their absorption spectra
mode of activity of compound alone (P. aeruginosa PA14 [7]): bacteriostatic

COc1cc(/C=C/C(=O)CC(=O)/C=C/c2ccc(O)c(OC)c2)ccc1O [Curcumin]
synergy with TS (P. aeruginosa PA14 [2]; [8]): None

NC[C@H]1O[C@H](O[C@H]2[C@H](O)[C@@H](O[C@H]3O[C@H](CO)[C@@H](O)[C@H](N)[C@H]3O)[C@H](N)C[C@@H]2N)[C@H](N)C[C@@H]1O [tobramycin]
synergy with DSX (P. aeruginosa PA14 [2]; PA14): No synergy

O=C(O)[C@H]1O[C@@H](Oc2cc3oc(-c4ccccc4)cc(=O)c3c(O)c2O)[C@H](O)[C@@H](O)[C@@H]1O [baicalin, Baicalin]
synergy with TS (P. aeruginosa PA14 [2]; [8]): None

COc1cc(Cc2cnc(N)nc2N)cc(OC)c1OC [Trimethoprim]
colour change upon addition of FeCl3 [3]: turned golden-yellow

C[C@H]1c2cccc(O)c2C(=O)C2=C(O)[C@]3(O)C(=O)C(C(N)=O)=C(O)[C@@H](N(C)C)[C@@H]3[C@@H](O)[C@@H]21 [DOXY, Doxycycline]
one-eighth of MIC against PA14 (test concentration) (P. aeruginosa PA14 [2]; [9]): 1 µg/mL

O=C(N[C@H](CO)[C@H](O)c1ccc([N+](=O)[O-])cc1)C(Cl)Cl [Chloramphenicol]
synergy with DSX (P. aeruginosa PA14 [2]; PA14): No synergy

O=P([O-])([O-])O[C@H]1[C@H](OP(=O)([O-])O)[C@H](OP(=O)([O-])[O-])[C@H](OP(=O)([O-])O)[C@@H](OP(=O)([O-])[O-])[C@@H]1OP(=O)([O-])O.[Na+].[Na+].[Na+].[Na+].[Na+].[Na+].[Na+].[Na+].[Na+] [sodium phytate, Sodium phytate]
synergy with TS (P. aeruginosa PA14 [2]): None

O=C(CCc1ccc(O)cc1)c1c(O)cc(O)cc1O [phloretin, Phloretin]
synergy with TS (P. aeruginosa PA14 [2]; [8]): None

O=[N+]([O-])[O-].O=[N+]([O-])[O-].O=[N+]([O-])[O-].[Ga+3] [GN, Gallium Nitrate]
relative potency of synergy with TS (P. aeruginosa PA14 [2]): weakest
synergy with TS (P. aeruginosa PA14 [2]): synergized

geninthiocin A
synergy with DSX (P. aeruginosa PA14 [1]): did not synergize

O=C(O[C@@H]1Cc2c(O)cc(O)cc2O[C@@H]1c1cc(O)c(O)c(O)c1)c1cc(O)c(O)c(O)c1 [epigallocatechin gallate, Epigallocatechin Gallate]
synergy with TS (P. aeruginosa PA14 [2]; [8]): None

micrococcin P1 [MP]
synergy with DSX (P. aeruginosa PA14 [1]): synergize

CCn1cc(C(=O)O)c(=O)c2cnc(N3CCNCC3)nc21 [Pipemidic acid]
colour change upon addition of FeCl3 [3]: formed orange complexes
absorption spectrum after addition of FeCl3 [6]: shifted

COc1cc(/C=C/C(=O)O)ccc1O [ferulic acid, Ferulic Acid]
synergy with TS (P. aeruginosa PA14 [2]; [8]): None

C=C(NC(=O)C(=C)NC(=O)c1ccc2c(n1)-c1coc(n1)C(=C)NC(=O)C(=C)NC(=O)c1nc(oc1C)C(=C)NC(=O)[C@H](C(C)(C)O)NC(=O)C(=C)NC(=O)c1nc(oc1C)/C(=C/C)NC(=O)[C@H]([C@@H](C)O)NC(=O)c1csc-2n1)C(N)=O [BER, berninamycin A]
synergy with DSX (P. aeruginosa PA14 [1]): did not synergize

CO/N=C(\C(=O)N[C@@H]1C(=O)N2C(C(=O)O)=C(CSc3nc(=O)c(=O)[nH]n3C)CS[C@H]12)c1csc(N)n1 [Ceftriaxone, ceftriaxone]
colour change upon addition of FeCl3 [3]: turned red
absorption spectrum after addition of FeCl3 [6]: did not change
